Assay results as given in patent US5646027A, “Process for the production of gelatinase catalytic domain protein” (Warner-Lambert Company, priority 1994, dated 1997).

Key:
[1] = target: T1, human 72 kDa gelatinase catalytic domain (GCD), reconstructed 19 kDa protein lacking propeptide, C-terminal domain and fibronectin-like insert, Seq ID No: 1 (Homo sapiens, UniProt P08253, DEL214-387); test: Inhibition of GCD cleavage of thiopeptolide by amino acid derivatives; type: biochemical; conditions: for GCD IC50: 17.3 nM GCD, 100 μM thiopeptolide, 10 mM CaCl2, 10 μM ZnCl2, MOPS pH 7.0; for GCD Ki: derived from IC50 by Ki=IC50/(1+[substrate]/Km), substrate 100 μM, Km 134 μM
T1 construct: starting at Ala at position -2 and ending at Ile at 168; made in house; host or cells: E. coli BL21(DE3)/pLysS
Protocol: The 100 μL assay mixture typically contained 50 mM MOPS (pH 7.0), 1 mM DTNB, 100 μM thiopeptolide, 10 mM CaCl2, 10 μM ZnCl2, and the enzyme.
The compounds tested for GCD inhibition were obtained from Bachem. […] Inhibition was initially tested at inhibitor concentrations of 100 and 500 μM. […] The determinations were repeated three times.

[2] = target: stromelysin catalytic domain (SCD), C-terminally truncated human stromelysin, Seq ID No: 2 (Homo sapiens, UniProt P08254); conditions: taken from Ye Q. Z., et al., J. Med. Chem., 1994;37:206-209; cited from earlier work
[3] = target: thiopeptolide Ac-Pro-Leu-Gly-thioester-Leu-Leu-Gly-OEt
[4] = target: fluorogenic peptide Mca-Pro-Leu-Gly-Leu-Dpa-Ala-Arg-NH2
[5] = target: fluorogenic peptide Dnp-Pro-Leu-Gly-Leu-Trp-Ala-D-Arg-NH2

Sequence of stromelysin catalytic domain (SCD), C-terminally truncated human stromelysin, Seq ID No: 2 (P08254 100-273): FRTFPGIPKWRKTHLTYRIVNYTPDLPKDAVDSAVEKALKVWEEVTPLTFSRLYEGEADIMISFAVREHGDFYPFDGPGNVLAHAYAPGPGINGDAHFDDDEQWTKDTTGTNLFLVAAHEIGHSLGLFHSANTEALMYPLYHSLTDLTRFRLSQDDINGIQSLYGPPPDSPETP
Sequence of stromelysin catalytic domain (SCD), C-terminally truncated stromelysin (enzyme) (P08254 100-273 limits assumed): as the sequence (P08254 100-273) above
T1 sequence (P08253 with tags, fused parts or gaps DEL214-387): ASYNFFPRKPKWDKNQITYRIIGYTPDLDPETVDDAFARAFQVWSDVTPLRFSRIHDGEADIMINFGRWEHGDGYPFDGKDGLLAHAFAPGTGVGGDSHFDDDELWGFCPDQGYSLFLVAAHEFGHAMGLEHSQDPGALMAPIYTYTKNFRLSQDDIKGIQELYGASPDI

Compound	GCD IC50 [1] [µM]	GCD Ki [1] [µM]	IC50 [2] [µM]	further results
CC(C)(C)OC(=O)N[C@@H](Cc1c[nH]c2ccccc12)C(=O)O [Compound 5, Boc-L-Trp-OH]	57 ± 4	33	–	–
N[C@H](Cc1c[nH]c2ccccc12)C(=O)O [Compound 4, H-D-Trp-OH]	> 500	–	> 500	–
O=C(N[C@@H](Cc1ccc(O)cc1)C(=O)O)OCc1ccccc1 [Compound 7, Cbz-L-Tyr-OH]	10.4 ± 0.4	6.0	–	–
O=C(N[C@H](Cc1ccccc1)C(=O)O)OCc1ccccc1 [Compound 10, Cbz-D-Phe-OH]	100 to 500	–	> 500	–
human 72 kDa gelatinase catalytic domain protein (GCD), without propeptide, C-terminal domain and fibronectin-like insert (enzyme)	–	–	–	Catalytic efficiency kcat/Km in cleaving the thiopeptolide [3]: 119000 M⁻¹ s⁻¹; Catalytic efficiency kcat/Km in cleaving the fluorogenic peptide [4]: 184000 M⁻¹ s⁻¹; Catalytic efficiency kcat/Km in cleaving the fluorogenic peptide [5]: 112000 M⁻¹ s⁻¹
O=C(N[C@@H](Cc1ccccc1)C(=O)O)OCc1ccccc1 [Compound 9, Cbz-L-Phe-OH]	21 ± 1	12	–	–
CC(C)(C)OC(=O)N[C@H](Cc1c[nH]c2ccccc12)C(=O)O [Compound 6, Boc-D-Trp-OH]	> 500	–	100 to 500	–
O=C(N[C@H](Cc1ccc(O)cc1)C(=O)O)OCc1ccccc1 [Compound 8, Cbz-D-Tyr-OH]	> 500	–	–	–
N[C@@H](Cc1c[nH]c2ccccc12)C(=O)O [Compound 3, H-L-Trp-OH]	> 500	–	> 500	GCD inhibition (in words) ([1]; tested at 100 and 500 μM): not active
stromelysin catalytic domain (SCD), C-terminally truncated stromelysin (enzyme)	–	–	–	Catalytic efficiency kcat/Km in cleaving the thiopeptolide [3]: 7840 M⁻¹ s⁻¹; Catalytic efficiency kcat/Km in cleaving the fluorogenic peptide [4]: 10000 M⁻¹ s⁻¹; Catalytic efficiency kcat/Km in cleaving the fluorogenic peptide [5]: 13700 M⁻¹ s⁻¹
